Test: Pharmacokinetic parameters after oral gavage in Sprague Dawley rats
Format: in vivo, male Sprague Dawley rats
Settings: rat, 10 mg/kg
Description: The in vivo pharmacokinetic parameters of mesoporous silica (AMS-6) loaded with probucol (34.8 wt %) prepared according to the procedure as described in Example 1, were obtained after oral gavage to male Sprague Dawley rats at a dose of 10 mg/kg. Crystalline probucol (PB) was administered in comparison. […] Further, the maximum concentration of probucol after administration of silica loaded with probucol is approximately 10 times higher than when crystalline probucol is administered.

AUC(0-inf) (male, Sprague Dawley, plasma): 859 ng·h/mL
Cmax (male, Sprague Dawley, plasma): 30.9 ng/mL
Tmax (male, Sprague Dawley, plasma): 8 h
half-life (male, Sprague Dawley, plasma): 19.6 h
AUC(0-t) (male, Sprague Dawley, plasma, read-out: AUC0-24): 492 ng·h/mL
Tlast: 24 h
Compound: CC(C)(Sc1cc(C(C)(C)C)c(O)c(C(C)(C)C)c1)Sc1cc(C(C)(C)C)c(O)c(C(C)(C)C)c1 [PB, Probucol]
